Target: G12C K-Ras4B (1-169) (Homo sapiens (Human), UniProt P01116, G12C)
Assay: Test of compounds on whether to bind to KRASG12C (LC-MS compound binding rate)
Details: final compound concentration of 2 μM, 1 μM protein, 25° C. for 2 hours
Procedure: Test compounds were prepared in the form of a 10 mM DMSO solution.
K-Ras4B (1-169) and G12C K-Ras4B (1-169) proteins were mixed and diluted with a buffer (1×TBS, 0.1 mM TCEP) to prepare individual 1 μM protein solutions. A 10 mM test compound was diluted tenfold with DMSO to make a 1 mM solution, and then diluted fivefold with DMSO to make a 200 μM solution. The 200 μM solution was further diluted fivefold to make a 40 μM solution. When the final compound concentration was 10 μM, 1 μL of a 200 μM test compound was added to 19 μL of a 1 μM protein solution. When the final compound concentration was 2 μM, 1 μL of a 40 μM test compound was added to 19 μL of a 1 μM protein solution. The mixtures were stored in an incubator at 25° C. for 2 hours, and 80 μL of a 1×TBS solution containing 0.2% formic acid was added thereto to end the reaction, followed by LC-MS measurement. LC-MS measurement was performed using Xevo G2-S Q-Tof manufactured by Waters, and reverse-phase chromatography was performed with a desalting column. A mass spectrum of positive ions was obtained by electrospray. For a mass spectrum, a spectrum of a polyvalent ion was collectively converted to a molecular weight by using OpenLynx software by the MaxEnt technique, and a compound binding rate was obtained from the ratio of a signal intensity that corresponds to the molecular weight of a protein to a signal intensity that corresponds to the molecular weight of a compound binding to the protein.
By obtaining the compound binding rate for K-Ras4B (1-169) and the compound binding rate for G12C K-Ras4B (1-169) at the same time, information of the selectivity for G12C K-Ras4B (1-169) was obtained at the same time.
The test compounds were measured at their final compound concentration of 2 μM. […] Almost no compounds of the present invention binded to K-Ras4B (1-169). The “binding rate” (%) for each of K-Ras4B (1-169) and G12C K-Ras4B (1-169) refers to the ratio of the signal intensity of binded forms to the sum of the signal intensity of non-binded forms and the signal intensity of binded forms.

SMILES	binding rate for G12C K-Ras4B (1-169)
C=CC(=O)N1CC(NC(=O)c2c(C)nc(CNc3n[nH]c4cc(C)c(C(C)(C)C)cc34)n2C)C1 [Example 41, N-(1-acryloylazetidin-3-yl)-2-(((5-(tert-butyl)-6-methyl-1H-indazol-3-yl)amino)methyl)-1,4-dimethyl-1H-imidazole-5-carboxamide]	A (a binding rate of 80% or more is rated “A,”)
C=CC(=O)N1C[C@H](NC(=O)c2c(C)nc(CNc3n[nH]c4cc(Cl)c(C(C)(C)C)cc34)n2C)[C@@H](OC)C1 [Example 63, N-((3S,4S)-1-acryloyl-4-methoxypyrrolidin-3-yl)-2-(((5-(tert-butyl)-6-chloro-1H-indazol-3-yl)amino)methyl)-1,4-dimethyl-1H-imidazole-5-carboxamide]	B (a binding rate of 60% or more and less than 80% is rated “B,”)
C=CC(=O)N1CC(NC(=O)c2c(F)nc(CNc3n[nH]c4cc(Cl)c(C(C)(C)C)cc34)n2C(C)C)C1 [Example 34, N-(1-acryloylazetidin-3-yl)-2-(((5-(tert-butyl)-6-chloro-1H-indazol-3-yl)amino)methyl)-4-fluoro-1-isopropyl-1H-imidazole-5-carboxamide]	A (a binding rate of 80% or more is rated “A,”)
C=CC(=O)N1CC(NC(=O)c2c(C(F)F)nc(CNc3n[nH]c4cc(Cl)c(C(C)(C)C)cc34)n2CC2CCCN2C(C)C)C1 (centres unmarked) [Example 95, N-(1-acryloylazetidin-3-yl)-2-(((5-(tert-butyl)-6-chloro-1H-indazol-3-yl)amino)methyl)-4-(difluoromethyl)-1-((1-isopropylpyrrolidine-2-yl)methyl)-1H-imidazole-5-carboxamide]	A (a binding rate of 80% or more is rated “A,”)
[2H]C([2H])(Nc1n[nH]c2cc(Cl)c(C(C)(C)C)cc12)c1nc(C(F)F)c(C(=O)NC2CN(C(=O)C=C)C2)n1C(C)C [Example 36, N-(1-acryloylazetidin-3-yl)-2-(((5-(tert-butyl)-6-chloro-1H-indazol-3-yl)amino)methyl-d2)-4-(difluoromethyl)-1-isopropyl-1H-imidazole-5-carboxamide]	B (a binding rate of 60% or more and less than 80% is rated “B,”)
C=CC(=O)N1C[C@H](NC(=O)c2c(C)nc(CNc3n[nH]c4cc(Cl)c(C(C)(C)C)cc34)n2C)[C@@H](O)C1 [Example 62, N-((3S,4S)-1-acryloyl-4-hydroxypyrrolidin-3-yl)-2-(((5-(tert-butyl)-6-chloro-1H-indazol-3-yl)amino)methyl)-1,4-dimethyl-1H-imidazole-5-carboxamide]	A (a binding rate of 80% or more is rated “A,”)
C=CC(=O)N1CC(NC(=O)c2cnc(CNc3n[nH]c4cc(Cl)c(C=C)cc34)n2C)C1 [Example 38, N-(1-acryloylazetidin-3-yl)-2-(((6-chloro-5-vinyl 1H-indazol-3-yl)amino)methyl)-1-methyl-1H-imidazole-5-carboxamide]	C (a binding rate of 40% or more and less than 60% is rated “C,”)
C=CC(=O)N1CC(NC(=O)c2cnc(CNc3n[nH]c4cc(Cl)c(C(C)(C)C)nc34)n2C)C1 [Example 40, N-(1-acryloylazetidin-3-yl)-2-(((5-(tert-butyl)-6-chloro-1H-pyrazolo[4,3-b]pyridin-3-yl)amino)methyl)-1-methyl-1H-imidazole-5-carboxamide]	A (a binding rate of 80% or more is rated “A,”)
C=CC(=O)N1CC(NC(=O)c2c(Cl)nc(CNc3n[nH]c4cc(Cl)c(C(C)(C)C)cc34)n2[C@@H]2CCN(CC(F)F)C2)C1 [Example 113, (R)—N-(1-acryloylazetidin-3-yl)-2-(((5-(tert-butyl)-6-chloro-1H-indazol-3-yl)amino)methyl)-4-chloro-1-(1-(2,2-difluoroethyl)pyrrolidin-3-yl)-1H-imidazole-5-carboxamide]	A (a binding rate of 80% or more is rated “A,”)
C=CC(=O)N1CC(NC(=O)c2c(C)nc(CNc3n[nH]c4cc(Cl)c(C(C)(C)C)cc34)n2CC)C1 [Example 12, N-(1-acryloylazetidin-3-yl)-2-(((5-(tert-butyl)-6-chloro-1H-indazol-3-yl)amino)methyl)-1-ethyl-4-methyl-1H-imidazole-5-carboxamide]	B (a binding rate of 60% or more and less than 80% is rated “B,”)
C=CC(=O)N1CC(NC(=O)c2c(C(F)F)nc(CNc3n[nH]c4cc(Cl)c(C(C)(C)C)cc34)n2C2CCN(C)C2)C1 (centres unmarked) [Example 91, N-(1-acryloylazetidin-3-yl)-2-(((5-(tert-butyl)-6-chloro-1H-indazol-3-yl)amino)methyl)-4-(difluoromethyl)-1-(1-methylpyrrolidin-3-yl)-1H-imidazole-5-carboxamide]	A (a binding rate of 80% or more is rated “A,”)
C=CC(=O)N1CC(NC(=O)c2cc(CNc3n[nH]c4cc(Cl)c(C(C)(C)C)cc34)nn2C)C1 [Example 9, N-(1-acryloylazetidin-3-yl)-3-(((5-(tert-butyl)-6-chloro-1H-indazol-3-yl)amino)methyl)-1-methyl-1H-pyrazole-5-carboxamide]	D (a binding rate of 20% or more and less than 40% is rated “D,”)
C=CC(=O)N1C[C@@H](C)[C@@H](NC(=O)c2c(C)nc(CNc3n[nH]c4cc(Cl)c(C(C)(C)C)cc34)n2C)C1 [Example 55, N-((3R,4R)-1-acryloyl-4-methylpyrrolidin-3-yl)-2-(((5-(tert-butyl)-6-chloro-1H-indazol-3-yl)amino)methyl)-1,4-dimethyl-1H-imidazole-5-carboxamide]	A (a binding rate of 80% or more is rated “A,”)
Cc1nc(CNc2n[nH]c3cc(Cl)c(C(C)(C)C)cc23)n(C(C)C)c1C(=O)NC1CN(C(=O)/C=C\Cl)C1 [Example 83, (Z)-2-(((5-(tert-butyl)-6-chloro-1H-indazol-3-yl)amino)methyl)-N-(1-(3-chloroacryloyl)azetidin-3-yl)-1-isopropyl-4-methyl-1H-imidazole-5-carboxamide]	D (a binding rate of 20% or more and less than 40% is rated “D,”)
C=CC(=O)N1C[C@@H](NC(=O)c2c(C)nc(CNc3n[nH]c4cc(Cl)c(C(C)(C)C)cc34)n2C)[C@H]1C (relative stereo) [Example 52, N-((2R*,3R*)-1-acryloyl-2-methylazetidin-3-yl)-2-(((5-(tert-butyl)-6-chloro-1H-indazol-3-yl)amino)methyl)-1,4-dimethyl-1H-imidazole-5-carboxamide]	B (a binding rate of 60% or more and less than 80% is rated “B,”)
COC/C=C/C(=O)N1CC(NC(=O)c2c(C)nc(CNc3n[nH]c4cc(Cl)c(C(C)(C)C)cc34)n2C(C)C)C1 [Example 85, (E)-2-(((5-(tert-butyl)-6-chloro-1H-indazol-3-yl)amino)methyl)-1-isopropyl-N-(1-(4-methoxybut-2-enoyl)azetidin-3-yl)-4-methyl-1H-imidazole-5-carboxamide]	C (a binding rate of 40% or more and less than 60% is rated “C,”)
C=CC(=O)N1CC(NC(=O)c2c(C)nc(CNc3n[nH]c4cc(Cl)c(C(C)(C)C)cc34)n2C(C)CC)C1 (centres unmarked) [Example 20, N-(1-acryloylazetidin-3-yl)-1-(sec-butyl)-2-(((5-(tert-butyl)-6-chloro-1H-indazol-3-yl)amino)methyl)-4-methyl-1H-imidazole-5-carboxamide]	A (a binding rate of 80% or more is rated “A,”)
C=CC(=O)N1CC(NC(=O)c2c(C)nc(CNc3n[nH]c4cc(Cl)c(C(C)(C)C)cc34)n2C(F)F)C1 [Example 21, N-(1-acryloylazetidin-3-yl)-2-(((5-(tert-butyl)-6-chloro-1H-indazol-3-yl)amino)methyl)-1-(difluoromethyl)-4-methyl-1H-imidazole-5-carboxamide]	B (a binding rate of 60% or more and less than 80% is rated “B,”)
C=CC(=O)N1CC(NC(=O)c2cnc(CNc3n[nH]c4cc(Cl)c(CC)cc34)n2C)C1 [Example 39, N-(1-acryloylazetidin-3-yl)-2-(((6-chloro-5-ethyl-1H-indazol-3-yl)amino)methyl)-1-methyl-1H-imidazole-5-carboxamide]	C (a binding rate of 40% or more and less than 60% is rated “C,”)
C=CC(=O)N1CC(NC(=O)c2c(C)nc(CNc3n[nH]c4cc(Cl)c(C(C)(C)C)cc34)n2CCOC)C1 [Example 14, N-(1-acryloylazetidin-3-yl)-2-(((5-(tert-butyl)-6-chloro-1H-indazol-3-yl)amino)methyl)-1-(2-methoxyethyl)-4-methyl-1H-imidazole-5-carboxamide]	B (a binding rate of 60% or more and less than 80% is rated “B,”)

Source: patent US12065430B2, “Indazole compound or salt thereof” (TAIHO PHARMACEUTICAL CO., LTD., priority 2018, dated 2024)
